IC50 data for 17 molecules are collected here from patent publication US20240327412A1, “FACTOR XIIA INHIBITORS” (KALVISTA PHARMACEUTICALS LIMITED, priority 2021, published 2024).

A value given as a limit tells only on which side of the number the result lay.

Holding throughout (format): biochemical
One experiment concerns the target FXa (Homo sapiens, UniProt P00742). The experiment can be described thus: Related protease inhibition: FXa (fluorogenic substrate at Km). Conditions: class symbols per Table 18. On the procedure:
(§1) In vitro inhibition of related proteases was determined using an IC50 assay based on standard literature methods (see e.g. Shori et al., Biochem. Pharmacol., 1992, 43, 1209; Bouckaert et al., European Journal of Medicinal Chemistry 110 (2016) 181). Human serine protease enzyme Plasma Kallikrein, KLK1, FXa, Plasmin, Thrombin and Trypsin were assayed for enzymatic activity using an appropriate fluorogenic substrate at Km concentration, FXIa at fixed substrate concentration of 100 μM and various concentrations of the test compound. Protease activity was measured by monitoring the accumulation of liberated fluorescence from the substrate over 5 min at 25° C. The linear rate of fluorescence increase per minute was expressed as percentage (%) activity. IC50 values were calculated as the concentration of inhibitor giving 50% inhibition of the uninhibited enzyme activity (100%).

In another experiment the target is KLK1 (Homo sapiens, UniProt P06870). The experiment can be described thus: Related protease inhibition: KLK1 (fluorogenic substrate at Km). Conditions: class symbols per Table 18. On the procedure: as §1
A further experiment deals with Thrombin (Homo sapiens, UniProt P00734). The experiment can be described thus: Related protease inhibition: Thrombin (fluorogenic substrate at Km). Conditions: class symbols per Table 18. The procedure: as §1
Another experiment has as its target T1, Plasma Kallikrein (Homo sapiens, UniProt P03952).
T1 construct: FXIIa converts plasma prekallikrein (PK) to plasma kallikrein (PKa)
The experiment can be described thus: Related protease inhibition: Plasma Kallikrein (fluorogenic substrate at Km). Conditions: class symbols per Table 18, read-out: IC50 (human PKal). Summed up:
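Enzymatic activity was followed as release of fluorescence from a fluorogenic substrate over 5 min at 25° C, with test compound at various concentrations. The linear rate per minute was converted to % activity, and IC50 was taken as the concentration giving 50% inhibition of uninhibited enzyme activity.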

The target of another experiment is T2, Human Factor XIIa (Homo sapiens, UniProt P00748).
T2 construct: Proteolytic cleavage of FXII to heavy and light chains of FXIIa dramatically increases catalytic activity; purchased Enzyme Research Laboratories
T2 sequence (P00748 373-615 limits assumed): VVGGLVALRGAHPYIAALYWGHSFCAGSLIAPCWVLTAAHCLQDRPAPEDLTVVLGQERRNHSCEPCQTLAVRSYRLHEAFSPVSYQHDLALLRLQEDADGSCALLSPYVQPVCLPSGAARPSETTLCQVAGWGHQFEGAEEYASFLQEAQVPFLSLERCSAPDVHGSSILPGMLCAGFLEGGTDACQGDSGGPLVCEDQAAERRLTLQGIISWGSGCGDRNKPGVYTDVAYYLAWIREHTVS
T2 sequence (P00748 20-372 partner limits assumed): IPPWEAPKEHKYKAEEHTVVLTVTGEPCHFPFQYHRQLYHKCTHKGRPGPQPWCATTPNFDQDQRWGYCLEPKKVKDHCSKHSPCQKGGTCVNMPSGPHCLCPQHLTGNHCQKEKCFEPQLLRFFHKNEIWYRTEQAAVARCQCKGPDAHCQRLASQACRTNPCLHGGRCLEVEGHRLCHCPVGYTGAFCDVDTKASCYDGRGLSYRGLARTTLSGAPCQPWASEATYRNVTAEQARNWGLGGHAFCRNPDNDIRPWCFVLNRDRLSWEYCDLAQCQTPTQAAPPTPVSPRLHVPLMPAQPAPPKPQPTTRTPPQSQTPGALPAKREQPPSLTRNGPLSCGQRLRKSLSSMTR
Briefly: Determination of FXIIa inhibition (fluorogenic substrate H-DPro-Phe-Arg-AFC, IC50 assay). Conditions: substrate at Km concentration, 25° C.; category scale; read-out: Human FXII IC50 (nm). Summed up:
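Human FXIIa incubated at 25° C. with fluorogenic H-DPro-Phe-Arg-AFC at its Km concentration plus varying compound levels. Linear fluorescence increase over 5 min taken as % activity; IC50 is concentration halving uninhibited activity.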

FXa, sequence (P00742 235-488 limits assumed): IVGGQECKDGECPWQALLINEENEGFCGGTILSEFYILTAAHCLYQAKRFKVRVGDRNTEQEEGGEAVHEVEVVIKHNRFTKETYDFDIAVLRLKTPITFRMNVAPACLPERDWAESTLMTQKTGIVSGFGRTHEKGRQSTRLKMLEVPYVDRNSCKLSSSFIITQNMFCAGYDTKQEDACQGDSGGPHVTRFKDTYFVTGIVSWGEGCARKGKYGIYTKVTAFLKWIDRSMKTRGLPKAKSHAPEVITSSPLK
FXa, sequence (P00742 41-179 partner limits assumed): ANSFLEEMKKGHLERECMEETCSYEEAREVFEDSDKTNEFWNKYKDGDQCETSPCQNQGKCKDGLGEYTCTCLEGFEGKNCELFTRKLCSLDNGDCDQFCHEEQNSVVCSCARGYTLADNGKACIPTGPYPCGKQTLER
T1 sequence (P03952 391-638 limits assumed): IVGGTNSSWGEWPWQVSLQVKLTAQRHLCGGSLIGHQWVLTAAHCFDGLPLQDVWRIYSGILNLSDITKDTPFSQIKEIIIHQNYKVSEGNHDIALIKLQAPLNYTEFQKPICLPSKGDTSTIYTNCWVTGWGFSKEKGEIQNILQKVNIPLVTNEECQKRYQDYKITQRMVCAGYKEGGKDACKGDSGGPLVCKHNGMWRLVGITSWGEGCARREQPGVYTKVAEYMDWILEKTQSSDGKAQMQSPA
T1 sequence (P03952 20-390 partner limits assumed): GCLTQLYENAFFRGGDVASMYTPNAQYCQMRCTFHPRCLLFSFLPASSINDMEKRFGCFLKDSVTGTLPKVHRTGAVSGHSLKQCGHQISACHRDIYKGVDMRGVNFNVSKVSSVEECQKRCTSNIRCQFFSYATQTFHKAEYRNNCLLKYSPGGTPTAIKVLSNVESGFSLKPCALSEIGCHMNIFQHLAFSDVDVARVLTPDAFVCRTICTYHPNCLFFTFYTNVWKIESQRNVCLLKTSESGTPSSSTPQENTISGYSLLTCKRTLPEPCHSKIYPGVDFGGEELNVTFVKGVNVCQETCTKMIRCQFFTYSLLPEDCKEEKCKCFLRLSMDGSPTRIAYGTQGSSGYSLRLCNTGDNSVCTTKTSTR
KLK1, sequence (P06870 25-262): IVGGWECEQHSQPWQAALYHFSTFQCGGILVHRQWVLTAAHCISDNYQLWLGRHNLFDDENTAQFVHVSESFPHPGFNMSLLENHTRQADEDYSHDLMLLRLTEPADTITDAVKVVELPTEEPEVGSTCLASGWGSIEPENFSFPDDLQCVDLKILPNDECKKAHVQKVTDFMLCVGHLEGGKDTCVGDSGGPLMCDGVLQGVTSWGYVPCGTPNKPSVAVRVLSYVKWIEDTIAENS

For the molecule `Nc1nccc2c(NCC34CC(CN5CCn6ccnc6C5)(C3)C4)cccc12` [Example 1004, 5-N-[[3-(6,8-Dihydro-5H-imidazo[1,2-a]pyrazin-7-ylmethyl)-1-bicyclo[1.1.1]pentanyl]methyl]isoquinoline-1,5-diamine], the IC50 is 1 to 3 µM against FXa; 3 to 10 µM against KLK1; 10 to 40 µM at Thrombin; greater than 40 µM at Plasma Kallikrein; 3 to 10 µM on Human Factor XIIa.

For the molecule `Cc1cn2ccc(OCC34CC(CNc5cccc6c(N)nccc56)(C3)C4)cc2n1` [Example 1006, N5-((3-(((2-Methylimidazo[1,2-a]pyridin-7-yl)oxy)methyl)bicyclo[1.1.1]pentan-1-yl)methyl)isoquinoline-1,5-diamine], the IC50 against FXa is 1 to 3 µM; at KLK1 it was 1 to 3 µM; against Thrombin, 10 to 40 µM; at Plasma Kallikrein, greater than 40 µM; at Human Factor XIIa, 0.1 to 0.3 µM.

As to `c1cc2cc(NCC34CC(COc5ccn6ccnc6c5)(C3)C4)ccc2cn1` [Example 1011, N-((3-((imidazo[1,2-a]pyridin-7-yloxy)methyl)bicyclo[1.1.1]pentan-1-yl)methyl)isoquinolin-6-amine], the IC50 was 1 to 3 µM against FXa; 10 to 40 µM at KLK1; 10 to 40 µM against Thrombin; greater than 100 µM at Plasma Kallikrein; 10 to 40 µM on Human Factor XIIa.

For the molecule `Cc1cc2c(NCC34CC(COc5ccn6ccnc6c5)(C3)C4)ccnc2[nH]1` [Example 1012, N-((3-((Imidazo[1,2-a]pyridin-7-yloxy)methyl)bicyclo[1.1.1]pentan-1-yl)methyl)-2-methyl-1H-pyrrolo[2,3-b]pyridin-4-amine], the IC50 was 1 to 3 µM against FXa; greater than 40 µM on KLK1; 1 to 3 µM on Thrombin; greater than 100 µM on Plasma Kallikrein; 1 to 3 µM at Human Factor XIIa.

As for `Nc1nccc2c(NCC34CC(C(=O)N5CCn6ccnc6C5)(C3)C4)cccc12` [Example 1016, [3-[[(1-Aminoisoquinolin-5-yl)amino]methyl]-1-bicyclo[1.1.1]pentanyl]-(6,8-dihydro-5H-imidazo[1,2-a]pyrazin-7-yl)methanone], the IC50 at FXa was greater than 40 µM; against KLK1, 3 to 10 µM; against Thrombin, greater than 40 µM; on Plasma Kallikrein, greater than 40 µM; at Human Factor XIIa it was 3 to 10 µM.

As to `Nc1nccc2c(NCC34CC(COc5ccc6nccn6c5)(C3)C4)cccc12` [Example 1017, 5-N-[[3-(Imidazo[1,2-a]pyridin-6-yloxymethyl)-1-bicyclo[1.1.1]pentanyl]methyl]isoquinoline-1,5-diamine], the IC50 was 10 to 40 µM on FXa; 3 to 10 µM at KLK1; 10 to 40 µM against Thrombin; greater than 40 µM at Plasma Kallikrein; 0.1 to 0.3 µM at Human Factor XIIa.

As for `Cn1ccc(OCC23CC(CNc4cccc5c(N)nccc45)(C2)C3)cc1=O` [Example 1019, 4-[[3-[[(1-aminoisoquinolin-5-yl)amino]methyl]-1-bicyclo[1.1.1]pentanyl]methoxy]-1-methylpyridin-2-one], the IC50 on FXa was 10 to 40 µM; against KLK1, 3 to 10 µM; against Thrombin, 10 to 40 µM; at Plasma Kallikrein, greater than 40 µM; at Human Factor XIIa, 0.3 to 1 µM.

On to `Nc1nccc2c(NCC34CC(COc5cnc6cc[nH]c6c5)(C3)C4)cccc12` [Example 1101, 5-N-[[3-(1H-pyrrolo[3,2-b]pyridin-6-yloxymethyl)-1-bicyclo[1.1.1]pentanyl]methyl]isoquinoline-1,5-diamine], for which the IC50 against FXa is 1 to 3 µM; against KLK1, 3 to 10 µM; on Thrombin it was 10 to 40 µM; on Plasma Kallikrein, greater than 40 µM; on Human Factor XIIa it was 3 to 10 µM.

`Nc1nccc2c(NCC34CC(COc5ccc6nc[nH]c6c5)(C3)C4)cccc12` [Example 1105, N5-((3-(((1H-benzo[d]imidazol-6-yl)oxy)methyl)bicyclo[1.1.1]pentan-1-yl)methyl)isoquinoline-1,5-diamine]: the IC50 on FXa was 1 to 3 µM; at KLK1 it was 3 to 10 µM; on Thrombin, 10 to 40 µM; at Plasma Kallikrein it was greater than 40 µM; at Human Factor XIIa, 3 to 10 µM.

For `Nc1nccc2c(NCC34CC(COc5ccc6c(c5)C(=O)NC6)(C3)C4)cccc12` [Example 1109, 6-((3-(((1-aminoisoquinolin-5-yl)amino)methyl)bicyclo[1.1.1]pentan-1-yl)methoxy)isoindolin-1-one], the IC50 against FXa was 10 to 40 µM; against KLK1, 1 to 3 µM; against Thrombin, 10 to 40 µM; at Plasma Kallikrein it was greater than 40 µM; at Human Factor XIIa, 0.3 to 1 µM.

For `Nc1nccc2c(NCC34CC(COC5Cc6nccn6C5)(C3)C4)cccc12` (stereo not shown) [Example 1118, N5-((3-(((6,7-dihydro-5H-pyrrolo[1,2-a]imidazol-6-yl)oxy)methyl)bicyclo[1.1.1]pentan-1-yl)methyl)isoquinoline-1,5-diamine], the IC50 is greater than 40 µM at FXa; 3 to 10 µM on KLK1; 10 to 40 µM at Thrombin; greater than 40 µM on Plasma Kallikrein; 1 to 3 µM on Human Factor XIIa.

With `Cc1cc(OCC23COC(CNc4cccc5c(N)nccc45)(C2)C3)cn2ccnc12` [Example 6617, N5-((4-(((8-methylimidazo[1,2-a]pyridin-6-yl)oxy)methyl)-2-oxabicyclo[2.1.1]hexan-1-yl)methyl)isoquinoline-1,5-diamine], the IC50 is 10 to 40 µM against FXa, 3 to 10 µM at KLK1, greater than 40 µM at Plasma Kallikrein and 0.01 to 0.1 µM on Human Factor XIIa.

For the molecule `Cc1cn2ccnc2cc1OCC12CCOC(CNc3cccc4c(N)nccc34)(C1)C2` [Example 10920, N5-((5-(((6-methylimidazo[1,2-a]pyridin-7-yl)oxy)methyl)-2-oxabicyclo[3.1.1]heptan-1-yl)methyl)isoquinoline-1,5-diamine], the IC50 on FXa fell in the range of 10 to 40 µM; against KLK1 it was 3 to 10 µM; at Plasma Kallikrein, 3 to 10 µM; at Human Factor XIIa, 0.1 to 0.3 µM.

Take `Cn1ccc(OCC23CNC(CNc4cccc5c(N)nccc45)(C2)C3)cc1=O` [Example 12007, 4-((1-(((1-aminoisoquinolin-5-yl)amino)methyl)-2-azabicyclo[2.1.1]hexan-4-yl)methoxy)-1-methylpyridin-2(1H)-one]: the IC50 against FXa is greater than 40 µM; at KLK1, 10 to 40 µM; on Plasma Kallikrein, greater than 4 µM; on Human Factor XIIa it was 0.01 to 0.1 µM.

As to `Cn1ccc(OCC23CN(C(=O)Oc4ccccc4)C(CNc4cccc5c(N)nccc45)(C2)C3)cc1=O` [Example 12008, phenyl 1-(((1-aminoisoquinolin-5-yl)amino)methyl)-4-(((1-methyl-2-oxo-1,2-dihydropyridin-4-yl)oxy)methyl)-2-azabicyclo[2.1.1]hexane-2-carboxylate], the IC50 at FXa was greater than 40 µM; against KLK1 it was 1 to 3 µM; on Plasma Kallikrein, greater than 4 µM; at Human Factor XIIa, 0.01 to 0.1 µM.

For the molecule `CC(=O)N1CC2(COc3ccn(C)c(=O)c3)CC1(CNc1cccc3c(N)nccc13)C2` [Example 12009, 4-((2-acetyl-1-(((1-aminoisoquinolin-5-yl)amino)methyl)-2-azabicyclo[2.1.1]hexan-4-yl)methoxy)-1-methylpyridin-2(1H)-one], the IC50 at FXa is greater than 40 µM; against KLK1, 10 to 40 µM; at Plasma Kallikrein, greater than 4 µM; on Human Factor XIIa it was 0.01 to 0.1 µM.

`Cn1ccc(OCC23CC(CNc4cccc5c(N)nccc45)(CN2C(=O)OCc2ccccc2)C3)cc1=O` [Example 13001, benzyl 4-(((1-aminoisoquinolin-5-yl)amino)methyl)-1-(((1-methyl-2-oxo-1,2-dihydropyridin-4-yl)oxy)methyl)-2-azabicyclo[2.1.1]hexane-2-carboxylate]: the IC50 against FXa was greater than 4 µM; on KLK1 it was greater than 4 µM; at Plasma Kallikrein, greater than 40 µM; on Human Factor XIIa, 0.01 to 0.1 µM.
